The record followed here is patent publication US8846671B2, “Heterocyclic alkynyl benzene compounds and medical compositions and uses thereof” (Guangzhou Institute of Biomedicine and Health, Chinese …, priority 2010, dated 2014).

Several values for one entry are separate records, joined by “and”; a condition that tells them apart may be missing. Equal values may be shown once. Read-outs that look alike come from different tables or passages of the source.

For data set [1], the target named is BAF3-T315I cells (Ba/F3 cell line stably expressing BCR/ABL T315I) (Homo sapiens, UniProt P00519, T315I, cells depend on it). The experiment in a line: tumor cell proliferation, MTT or CCK8 assay, 72 h incubation. The class given is cell-based, mice. On the procedure: (§1) The heterocyclic alkynyl benzene compounds at different concentrations (1×10^−10˜1×10^−5M) were incubated for 72 hours individually applied to 6 cell lines K562 (human CML cell line), MOLT-4 (human ALL cell line), U937 (human CML cell line), MEG-01 (human CML cell line), L78 (human lung cancer cell line), Ba/F3-T315I (mice Pro-B cells transformed with Bcr-AblT315I and STI57′-resistant cell line). After incubation for 72 hrs, cell proliferation was then determined by MTT assay or CCK8 assay, and 4 hr incubation is further conducted, the absorbance at 570 nm (CCK8, 450 nm, 650 nm) was measured using enzyme Microplate Reader.

The nature of data set [2]: Pharmacokinetics and bioavailability in rats. The class given is in vivo. The note with it: SD rats; corresponding pharmaceutical acceptable salt forms. The procedure: Pharmacokinetics and bioavailability in rats. […] The blood samples were collected at the proper time points after administration, add heparin-anticoagulant, and the supernatants of the blood samples were collected (3000 rpm, 10 min) and stored at -20° C. for HPLC-MS analysis. After protein-precipitation procedure with acetonitrile, supernatants were collected after 3000 rpm, 10 min for analysis with HPLC-MS. The data were analyzed with software DAS2.0 to separately acquire the parameters of compartment models and non-compartment models. The bioavailability was calculated according to AUC data.

Data set [3] relates to K562R cells (imatinib-resistant cell line). The experiment in a line: tumor cell proliferation, MTT or CCK8 assay, 72 h incubation. The class given is cell-based. The note with it: Homo sapiens, K-562R, read-out: IC50 on tumor cell proliferation, K562R cells.
The subject of data set [4] is MOLT-4 (Human acute lymphoblastic leukemia cell line). The description is as above. The class given is cell-based. To be noted: MOLT-4, 72 h, read-out: IC50 on tumor cell proliferation, MOLT-4. The procedure: as §1, with “Reader. […] Based on the inhibition potency of the heterocyclic alkynyl benzene compounds on the cell proliferation, IC50 values were calculated and summarized in the Table 1 and Table 2 (The compounds used were synthesized by Examples 1-40, and the compounds are marked with Drug No. series in Table 1).” for “Reader.”

Data set [5] concerns K562 (human chronic myelogenous leukemia cell line). The data set is described as above. The note with it: K562, 72 h, read-out: IC50 on tumor cell proliferation, K562. The class given is cell-based. On the procedure: as §1, with “Reader. […] Based on the inhibition potency of the heterocyclic alkynyl benzene compounds on the cell proliferation, IC50 values were calculated and summarized in the Table 1 and Table 2 (The compounds used were synthesized by Examples 1-40, and the compounds are marked with Drug No. series in Table 1).” for “Reader.”

Data set [6] relates to U937 Cell line. The description is as above. The class given is cell-based. The note with it: Homo sapiens, read-out: IC50 on tumor cell proliferation, U937. The procedure: as §1, with “Reader. […] Based on the inhibition potency of the heterocyclic alkynyl benzene compounds on the cell proliferation, IC50 values were calculated and summarized in the Table 1 and Table 2 (The compounds used were synthesized by Examples 1-40, and the compounds are marked with Drug No. series in Table 1).” for “Reader.”

The test system of data set [7] is MEG-01 (Human megakaryoblastic leukaemia cell line). Described as above. The class given is cell-based. The note with it: MEG-01, 72 h, read-out: IC50 on tumor cell proliferation, MEG-01. On the procedure: as §1, with “Reader. […] Based on the inhibition potency of the heterocyclic alkynyl benzene compounds on the cell proliferation, IC50 values were calculated and summarized in the Table 1 and Table 2 (The compounds used were synthesized by Examples 1-40, and the compounds are marked with Drug No. series in Table 1).” for “Reader.”

Where [8] appears, read: Ba/F3 expressing BCR/ABL T315I, 72 h, Table 1, read-out: IC50 on tumor cell proliferation, BAF3-T315I cells.
The mark [9] stands for this setting: U-937, 72 h, MTT or CCK8, no unit in cell.
The mark [10] stands for this setting: read-out: IC50 on tumor cell proliferation, BAF3-T315I cells, Ba/F3 expressing BCR/ABL T315I, 72 h, Table 1.

For the compound `Cc1ccc(C(=O)Nc2ccc(CN3CCN(C)CC3)c(C(F)(F)F)c2)cc1C#Cc1cnc2ccnn2c1` [D856, 4-methyl-N-(4-((4-methylpiperazin-1-yl)methyl)-3-(trifluoromethyl)phenyl)-3-(2-(pyrazolo[1,5-a]pyrimidin-6-yl)ethynyl)benzamide], in data set [1] (setting [8]), the GI50 was determined as 10.8 nM. For the same compound, in data set [2], the “pharmacokinetics parameters, overall judgement” value was “adequate pharmacokinetics parameters”. The IC50 in data set [3] (imatinib-resistant K562R) stood at 67 nM; in data set [4] (MTT or CCK8, no unit in cell), 499 nM; in data set [5] (MTT or CCK8, no unit in cell), 2.24 nM; in data set [6] (setting [9]), 2000 nM.
As for `Cc1cn(-c2cc(NC(=O)c3ccc(C)c(C#Cc4cnc(N)nc4)c3)cc(C(F)(F)F)c2)cn1` [D803, 3-(2-(2-aminopyrimidin-5-yl)ethynyl)-4-methyl-N-(3-(4-methyl-1H-imidazol-1-yl)-5-(trifluoromethyl)phenyl)benzamide], the GI50 in data set [1] (setting [10]) was 124 nM and 85.8 nM. Besides, the IC50 was 63.3 nM in data set [3]; 132 nM in data set [4]; 1.52 nM in data set [5]; over 100 nM in data set [7]; 147 nM in data set [6] (U-937, 72 h).
Take `CCN(CC)c1ncc(C#Cc2cc(C(=O)Nc3cc(-n4cnc(C)c4)cc(C(F)(F)F)c3)ccc2C)cn1` [D807, 3-(2-(2-(diethylamino)pyrimidin-5-yl)ethynyl)-4-methyl-N-(3-(4-methyl-1H-imidazol-1-yl)-5-(trifluoromethyl)phenyl)benzamide]: the GI50 in data set [1] (setting [8]) amounted to 13400 nM. Further, the IC50 in data set [3] (imatinib-resistant K562R) is 14100 nM; in data set [4] (MTT or CCK8, nM), over 100 nM; in data set [5] (MTT or CCK8, nM) it was 128 nM; in data set [7] (MTT or CCK8, nM), over 100 nM; in data set [6] (U-937, 72 h, MTT or CCK8, nM), 126 nM.
Take `Cc1cn(-c2cc(NC(=O)c3ccc(C)c(C#Cc4cnc(Nc5ccccc5)nc4)c3)cc(C(F)(F)F)c2)cn1` [D809, 4-methyl-N-(3-(4-methyl-1H-imidazol-1-yl)-5-(trifluoromethyl)phenyl)-3-(2-(2-(phenylamino)pyrimidin-5-yl)ethynyl)benzamide]: the GI50 in data set [1] (setting [10]) is 102 nM and 71.1 nM. The IC50 in data set [3] was 177 nM; in data set [4], over 100 nM; in data set [5] it was over 100 nM; in data set [7], 115 nM; in data set [6] (U-937, 72 h) it was over 100 nM.
In the case of `Cc1cn(-c2cc(NC(=O)c3ccc(C)c(C#Cc4cnc5ncnn5c4)c3)cc(C(F)(F)F)c2)cn1` [D798, 3-(2-([1,2,4]-triazolo[1,5-a]pyrimidin-6-yl)ethynyl)-4-methyl-N-(3-(4-methyl-1H-imidazol-1-yl)-5-(trifluoromethyl)phenyl)benzamide], the GI50 in data set [1] (setting [8]) is 1860 nM. The IC50 in data set [3] (imatinib-resistant K562R) is 1220 nM; in data set [4] (MTT or CCK8, nM) it was over 10 nM; in data set [5] (MTT or CCK8, nM), 34 nM; in data set [7] (MTT or CCK8, nM) it was over 100 nM; in data set [6] (U-937, 72 h, MTT or CCK8, nM) it was over 100 nM.
Take `Cc1ccc(C(=O)Nc2cc(-n3ccnc3)cc(C(F)(F)F)c2)cc1C#Cc1cnc(NC2CC2)nc1` [D729, N-(3-(1H-imidazol-1-yl)-5-(trifluoromethyl)phenyl)-3-(2-(2-(cyclopropylamino)pyrimidin-5-yl)ethynyl)-4-methylbenzamide]: the GI50 in data set [1] (Ba/F3 carrying T315I Bcr-Abl, STI571-resistant, Table 2, read-out: IC50 on the cell proliferation of Ba/F3 (T315I)) was under 100 nM; in data set [1] (setting [8]), 49.7 nM. Further, the IC50 in data set [3] (imatinib-resistant K562R) is 72.7 nM; in data set [4] (MTT or CCK8, no unit in cell), 5750 nM; in data set [5] (MTT or CCK8, nM), 2.09 nM; in data set [7] (MTT or CCK8, no unit in cell), 6580 nM.
In the case of `Cc1ccc(C(=O)Nc2ccc(CN3CC[C@H](N(C)C)C3)c(C(F)(F)F)c2)cc1C#Cc1cnc2ccnn2c1` [D940, (S)—N-(4-((3-(dimethylamino)pyrrolidin-1-yl)methyl)-3-(trifluoromethyl)phenyl)-4-methyl-3-(2-(pyrazolo[1,5-a]pyrimidin-6-yl)ethynyl)benzamide], in data set [1] (setting [8]), the GI50 came out at 245 nM. In addition, the IC50 in data set [3] (imatinib-resistant K562R) stood at 32 nM; in data set [4] (MTT or CCK8, no unit in cell), 955 nM; in data set [5] (MTT or CCK8, no unit in cell) it was 65.7 nM; in data set [6] (setting [9]), 715 nM.
`Cc1ccc(C(=O)Nc2cc(-n3ccnc3)cc(C(F)(F)F)c2)cc1C#Cc1cnc2ccnn2c1` [D819, N-(3-(1H-imidazol-1-yl)-5-(trifluoromethyl)phenyl)-4-methyl-3-(2-(pyrazolo[1,5-a]pyrimidin-6-yl)ethynyl)benzamide]: in data set [1] (setting [8]), the GI50 came to 3120 nM. The IC50 was 146 nM in data set [3] (imatinib-resistant K562R); 146 nM in data set [4] (MTT or CCK8, nM); 1.5 nM in data set [5] (MTT or CCK8, nM); 122 nM in data set [7] (MTT or CCK8, nM); 2210 nM in data set [6] (U-937, 72 h, MTT or CCK8, nM).
For the compound `Cc1ncn(-c2cc(NC(=O)c3ccc(C)c(C#Cc4cnc5ccnn5c4)c3)cc(C(F)(F)F)c2)n1` [D818, 4-methyl-N-(3-(3-methyl-1H-1,2,4-triazol-1-yl)-5-(trifluoromethyl)phenyl)-3-(2-(pyrazolo[1,5-a]pyrimidin-6-yl)ethynyl)benzamide], the GI50 in data set [1] (setting [8]) was 394 nM. For the same compound, the IC50 is 142 nM in data set [3] (imatinib-resistant K562R); over 100 nM in data set [4] (MTT or CCK8, nM); 1.38 nM in data set [5] (MTT or CCK8, nM); 210 nM in data set [7] (MTT or CCK8, nM); over 100 nM in data set [6] (U-937, 72 h, MTT or CCK8, nM).
For `Cc1ccc(C(=O)Nc2ccc(CN3CCN(CCO)CC3)c(C(F)(F)F)c2)cc1C#Cc1cnc2ccnn2c1` [D942, N-(4-((4-(2-hydroxyethyl)piperazin-1-yl)methyl)-3-(trifluoromethyl)phenyl)-4-methyl-3-(2-(pyrazolo[1,5-a]pyrimidin-6-yl)ethynyl)benzamide], in data set [1] (setting [8]), the GI50 is 102 nM. The IC50 amounted to 44 nM in data set [3] (imatinib-resistant K562R); 674 nM in data set [4] (MTT or CCK8, no unit in cell); 3.54 nM in data set [5] (MTT or CCK8, no unit in cell); 1300 nM in data set [6] (setting [9]).
For `Cc1ccc(C(=O)Nc2ccc(CN3CCOCC3)c(C(F)(F)F)c2)cc1C#Cc1cnc2ccnn2c1` [D931, 4-methyl-N-(4-(morpholinomethyl)-3-(trifluoromethyl)phenyl)-3-(2-(pyrazolo[1,5-a]pyrimidin-6-yl)ethynyl)benzamide] the same measures were 2750 nM, 510 nM, 7430 nM, over 10000 nM and 4600 nM.
The like results for `Cc1cn(-c2cc(NC(=O)c3ccc(C)c(C#Cc4cnc5ccnn5c4)c3)cc(C(C)(C)C)c2)cn1` [D941, N-(3-tert-butyl-5-(4-methyl-1H-imidazol-1-yl)phenyl)-4-methyl-3-(2-(pyrazolo[1,5-a]pyrimidin-6-yl)ethynyl)benzamide] were, in that order, 102 nM, 410 nM, 340 nM, 2.34 nM and 696 nM.
As for `Cc1cn(-c2cc(NC(=O)c3ccc(C)c(C#Cc4cnc(NC(C)(C)C)nc4)c3)cc(C(F)(F)F)c2)cn1` [D806, 3-(2-(2-(tert-butylamino)pyrimidin-5-yl)ethynyl)-4-methyl-N-(3-(4-methyl-1H-imidazol-1-yl)-5-(trifluoromethyl)phenyl)benzamide], in data set [1] (setting [10]), the GI50 stood at 1890 nM. Further, the IC50 in data set [4] is over 100 nM; in data set [5] it was over 100 nM; in data set [7], 131 nM; in data set [6] (U-937, 72 h) it was 147 nM.
